Laboratory results published in ChEMBL document CHEMBL1938382, “Fragment-based discovery of indole inhibitors of matrix metalloproteinase-13” (J Med Chem, 2011).
≈ marks a conversion by molar mass, not a printed value.

Assays:
Collagenase 3 [1] = target: T1, Collagenase 3 (Homo sapiens, UniProt P45452)
Description: Inhibition of human MMP13 expressed in Escherichia coli after 30 mins by fluorimetry

[2] = target: Matrix metalloproteinase-14 (Homo sapiens, UniProt P50281); assay: Inhibition of human recombinant MMP14 after 60 mins by fluorimetry
[3] = target: 72 kDa type IV collagenase (Homo sapiens, UniProt P08253); assay: Inhibition of human recombinant MMP2 after 30 mins by fluorimetry
72 kDa type IV collagenase, sequence (P08253 whole entry): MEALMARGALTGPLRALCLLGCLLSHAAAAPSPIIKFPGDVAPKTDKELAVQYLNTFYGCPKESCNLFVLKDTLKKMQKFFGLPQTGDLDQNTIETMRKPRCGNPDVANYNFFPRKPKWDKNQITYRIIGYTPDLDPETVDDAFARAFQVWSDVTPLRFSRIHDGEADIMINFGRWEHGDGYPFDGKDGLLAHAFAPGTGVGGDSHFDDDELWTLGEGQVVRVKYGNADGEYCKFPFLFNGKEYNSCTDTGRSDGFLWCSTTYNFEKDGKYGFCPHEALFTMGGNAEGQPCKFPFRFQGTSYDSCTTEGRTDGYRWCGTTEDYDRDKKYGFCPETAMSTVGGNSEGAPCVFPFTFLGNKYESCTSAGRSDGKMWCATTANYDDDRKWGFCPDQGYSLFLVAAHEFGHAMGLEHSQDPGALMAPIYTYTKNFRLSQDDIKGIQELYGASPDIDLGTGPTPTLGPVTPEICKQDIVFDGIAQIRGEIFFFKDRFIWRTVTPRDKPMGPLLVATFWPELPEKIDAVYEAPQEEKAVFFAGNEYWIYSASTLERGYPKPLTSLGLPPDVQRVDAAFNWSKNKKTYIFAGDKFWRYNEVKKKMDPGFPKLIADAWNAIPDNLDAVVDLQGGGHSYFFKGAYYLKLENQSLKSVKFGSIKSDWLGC

Collagenase 3 [4] = target: T1, Collagenase 3; assay: Inhibition of MMP13 after 30 mins by fluorimetry in the presence of 1.25% human serum albumin
Liver microsomes = assay: Drug metabolism in Sprague-Dawley rat liver microsomes assessed as ester hydrolysis product formation; type: ADME, Microsome
[5] = Metabolic stability in human liver microsomes after 5 mins relative to human hepatic blood flow; type: ADME, Microsome; conditions: read-out: Stability
Interstitial collagenase = target: T2, Interstitial collagenase (Homo sapiens, UniProt P03956); assay: Inhibition of human recombinant MMP1 after 30 mins by fluorimetry
T2 sequence (P03956 whole entry): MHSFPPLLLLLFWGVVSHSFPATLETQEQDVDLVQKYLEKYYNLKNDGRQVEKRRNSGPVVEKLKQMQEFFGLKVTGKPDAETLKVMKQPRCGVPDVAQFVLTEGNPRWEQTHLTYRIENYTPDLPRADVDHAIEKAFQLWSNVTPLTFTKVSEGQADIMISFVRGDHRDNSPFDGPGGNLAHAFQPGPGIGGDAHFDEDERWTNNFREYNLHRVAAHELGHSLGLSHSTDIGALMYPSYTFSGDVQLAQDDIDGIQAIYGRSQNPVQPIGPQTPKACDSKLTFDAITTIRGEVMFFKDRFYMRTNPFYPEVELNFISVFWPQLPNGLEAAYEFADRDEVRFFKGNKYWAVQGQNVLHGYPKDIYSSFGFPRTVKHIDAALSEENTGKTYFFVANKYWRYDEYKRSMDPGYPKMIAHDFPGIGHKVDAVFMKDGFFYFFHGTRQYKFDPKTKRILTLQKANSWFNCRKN

[6] = Clearance in Sprague-Dawley rat at 1 mg/kg, iv and 10 mg/kg, po; type: ADME, organism-based; conditions: in vivo
[7] = Lipophilicity, log P of the compound; type: physicochemical; conditions: octanol/water
[8] = Aqueous solubility of the compound at pH 7.4 by UV spectrophotometry; type: physicochemical; conditions: buffer
Neutrophil collagenase = Neutrophil collagenase (Homo sapiens, UniProt P22894); assay: Inhibition of human recombinant MMP8 after 30 mins by fluorimetry
Neutrophil collagenase, sequence (P22894 whole entry): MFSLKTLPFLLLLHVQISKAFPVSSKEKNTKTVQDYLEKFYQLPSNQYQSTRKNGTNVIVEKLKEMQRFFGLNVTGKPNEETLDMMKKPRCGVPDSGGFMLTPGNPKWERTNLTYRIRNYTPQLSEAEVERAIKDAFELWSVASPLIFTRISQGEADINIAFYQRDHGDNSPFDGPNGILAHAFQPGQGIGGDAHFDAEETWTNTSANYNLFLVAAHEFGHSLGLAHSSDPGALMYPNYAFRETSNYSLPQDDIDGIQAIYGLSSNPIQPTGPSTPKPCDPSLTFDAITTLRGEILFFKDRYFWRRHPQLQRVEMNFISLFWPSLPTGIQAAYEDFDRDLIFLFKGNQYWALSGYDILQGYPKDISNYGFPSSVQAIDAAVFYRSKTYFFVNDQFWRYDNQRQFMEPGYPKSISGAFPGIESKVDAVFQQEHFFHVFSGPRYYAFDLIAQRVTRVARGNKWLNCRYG

Stromelysin-1 = Stromelysin-1 (Homo sapiens, UniProt P08254); assay: Inhibition of human recombinant MMP3 after 30 mins by fluorimetry
Stromelysin-1, sequence (P08254 whole entry): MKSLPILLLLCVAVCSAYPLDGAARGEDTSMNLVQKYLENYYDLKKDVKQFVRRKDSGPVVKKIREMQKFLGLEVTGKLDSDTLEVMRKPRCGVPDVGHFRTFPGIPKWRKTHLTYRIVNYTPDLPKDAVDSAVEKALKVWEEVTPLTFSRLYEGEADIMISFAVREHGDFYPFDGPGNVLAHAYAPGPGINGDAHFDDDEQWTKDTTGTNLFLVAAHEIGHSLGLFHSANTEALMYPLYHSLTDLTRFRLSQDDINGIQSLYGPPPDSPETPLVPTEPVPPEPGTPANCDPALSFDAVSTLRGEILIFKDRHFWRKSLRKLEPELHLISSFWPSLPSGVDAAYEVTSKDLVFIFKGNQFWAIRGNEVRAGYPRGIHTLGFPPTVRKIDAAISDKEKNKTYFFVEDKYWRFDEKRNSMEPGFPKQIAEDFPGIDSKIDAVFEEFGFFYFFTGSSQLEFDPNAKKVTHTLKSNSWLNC

[9] = target: Macrophage metalloelastase (Homo sapiens, UniProt P39900); assay: Inhibition of human recombinant MMP12 after 30 mins by fluorimetry
Macrophage metalloelastase, sequence (P39900 whole entry): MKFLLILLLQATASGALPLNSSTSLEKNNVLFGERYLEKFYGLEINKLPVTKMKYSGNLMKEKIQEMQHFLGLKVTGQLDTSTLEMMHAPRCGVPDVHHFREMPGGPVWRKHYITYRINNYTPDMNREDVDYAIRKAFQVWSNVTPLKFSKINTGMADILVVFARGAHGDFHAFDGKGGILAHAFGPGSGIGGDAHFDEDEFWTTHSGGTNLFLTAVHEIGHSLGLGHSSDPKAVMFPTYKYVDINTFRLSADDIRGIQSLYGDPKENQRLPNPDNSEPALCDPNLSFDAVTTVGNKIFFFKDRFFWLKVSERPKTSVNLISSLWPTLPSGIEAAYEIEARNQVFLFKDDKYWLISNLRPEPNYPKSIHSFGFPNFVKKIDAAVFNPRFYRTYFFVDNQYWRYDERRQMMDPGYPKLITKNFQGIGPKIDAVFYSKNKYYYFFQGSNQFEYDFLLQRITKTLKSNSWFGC

Collagenase 3 [10] = target: T1, Collagenase 3; assay: Inhibition of […]-activated MMP13-mediated degradation of FITC-labeled type2 collagen after 1.5 hrs by fluorimetry
Collagenase 3 [11] = target: T1, Collagenase 3; assay: Inhibition of human MMP13-mediated degradation of bovine nasal cartilage after 2 hrs by ELISA in the presence of 10% human serum
[12] = Oral bioavailability in Sprague-Dawley rat at 10 mg/kg; type: ADME, organism-based; conditions: in vivo
Matrilysin = target: T3, Matrilysin (Homo sapiens, UniProt P09237); assay: Inhibition of human recombinant MMP7 after 30 mins by fluorimetry
T3 sequence (P09237 whole entry): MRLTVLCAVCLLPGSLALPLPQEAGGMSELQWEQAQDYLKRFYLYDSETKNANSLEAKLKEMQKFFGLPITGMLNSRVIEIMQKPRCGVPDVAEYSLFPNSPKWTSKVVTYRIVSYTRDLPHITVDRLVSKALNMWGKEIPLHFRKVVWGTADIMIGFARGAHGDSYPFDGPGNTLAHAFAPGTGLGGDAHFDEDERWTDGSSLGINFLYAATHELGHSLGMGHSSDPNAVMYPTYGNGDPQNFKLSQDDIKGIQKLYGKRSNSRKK

[13] = Half life in Sprague-Dawley rat at 1 mg/kg, iv and 10 mg/kg, po; type: ADME, organism-based; conditions: in vivo
Cytochrome P450 3A4 = Cytochrome P450 3A4 (Homo sapiens, UniProt P08684); assay: Inhibition of human recombinant CYP3A4 using 7-benzyloxy-4-trifluoromethylcoumarin as substrate after 30 mins by fluorimetry; type: ADME
Cytochrome P450 3A4, sequence (P08684 whole entry): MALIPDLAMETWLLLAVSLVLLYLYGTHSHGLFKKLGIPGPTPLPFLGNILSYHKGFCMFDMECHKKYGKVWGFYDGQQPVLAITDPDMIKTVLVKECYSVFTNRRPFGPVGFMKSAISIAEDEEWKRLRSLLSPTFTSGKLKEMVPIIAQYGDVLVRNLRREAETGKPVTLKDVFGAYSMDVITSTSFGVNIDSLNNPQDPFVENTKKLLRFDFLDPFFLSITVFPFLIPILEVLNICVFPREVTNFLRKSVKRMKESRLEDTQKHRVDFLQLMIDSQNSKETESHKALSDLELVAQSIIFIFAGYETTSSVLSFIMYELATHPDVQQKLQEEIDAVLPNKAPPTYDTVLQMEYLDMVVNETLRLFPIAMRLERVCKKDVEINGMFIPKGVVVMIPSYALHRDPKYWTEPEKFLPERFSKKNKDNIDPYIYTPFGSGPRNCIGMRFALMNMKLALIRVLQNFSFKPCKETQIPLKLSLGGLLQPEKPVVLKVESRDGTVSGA

Rattus norvegicus [14] = assay: Volume of distribution at steady state in Sprague-Dawley rat at 1 mg/kg, iv and 10 mg/kg, po; type: ADME, organism-based; conditions: in vivo
Rattus norvegicus [15] = assay: AUC in Sprague-Dawley rat at 10 mg/kg, po; type: ADME, organism-based, Plasma; set-up: dose 10 mg/kg, route oral; conditions: in vivo
Stromelysin-2 = Stromelysin-2 (Homo sapiens, UniProt P09238); assay: Inhibition of human recombinant MMP10 after 30 mins by fluorimetry
Stromelysin-2, sequence (P09238 whole entry): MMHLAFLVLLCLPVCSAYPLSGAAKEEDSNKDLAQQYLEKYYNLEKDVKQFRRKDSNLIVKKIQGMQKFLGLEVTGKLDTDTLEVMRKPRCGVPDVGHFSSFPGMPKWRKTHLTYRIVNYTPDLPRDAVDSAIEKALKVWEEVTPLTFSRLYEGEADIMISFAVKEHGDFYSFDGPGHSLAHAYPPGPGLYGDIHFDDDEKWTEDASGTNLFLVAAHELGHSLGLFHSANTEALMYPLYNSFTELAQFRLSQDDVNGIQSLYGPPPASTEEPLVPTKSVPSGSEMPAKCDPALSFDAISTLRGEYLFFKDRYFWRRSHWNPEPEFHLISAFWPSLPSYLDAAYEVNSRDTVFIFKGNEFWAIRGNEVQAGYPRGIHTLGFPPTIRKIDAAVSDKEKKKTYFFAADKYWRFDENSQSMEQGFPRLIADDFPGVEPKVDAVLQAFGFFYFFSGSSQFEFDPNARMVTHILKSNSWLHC

Cytochrome P450 2C9 = Cytochrome P450 2C9 (Homo sapiens, UniProt P11712); assay: Inhibition of human recombinant CYP2C9 using 7-methoxy-4-trifluoromethylcoumarin as substrate after 45 mins by fluorimetry; type: ADME
Cytochrome P450 2C9, sequence (P11712 whole entry): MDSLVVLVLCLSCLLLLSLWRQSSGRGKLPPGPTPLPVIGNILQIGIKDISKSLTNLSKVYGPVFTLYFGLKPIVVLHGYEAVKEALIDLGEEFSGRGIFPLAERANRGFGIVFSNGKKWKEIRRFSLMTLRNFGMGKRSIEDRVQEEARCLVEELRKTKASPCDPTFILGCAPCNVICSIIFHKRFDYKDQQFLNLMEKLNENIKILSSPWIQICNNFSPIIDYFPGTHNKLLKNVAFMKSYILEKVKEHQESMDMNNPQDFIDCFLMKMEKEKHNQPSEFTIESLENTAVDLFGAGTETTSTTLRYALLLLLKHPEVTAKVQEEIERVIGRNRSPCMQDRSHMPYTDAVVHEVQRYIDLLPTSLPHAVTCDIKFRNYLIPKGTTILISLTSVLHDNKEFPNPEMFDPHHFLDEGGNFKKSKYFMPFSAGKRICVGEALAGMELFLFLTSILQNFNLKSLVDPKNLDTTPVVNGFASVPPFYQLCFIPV

[16] = Cmax in Sprague-Dawley rat at 1 mg/kg, iv and 10 mg/kg, po; type: ADME, organism-based; conditions: in vivo
[17] = target: Matrix metalloproteinase-9 (Homo sapiens, UniProt P14780); assay: Inhibition of human recombinant MMP9 after 30 mins by fluorimetry
Matrix metalloproteinase-9, sequence (P14780 whole entry): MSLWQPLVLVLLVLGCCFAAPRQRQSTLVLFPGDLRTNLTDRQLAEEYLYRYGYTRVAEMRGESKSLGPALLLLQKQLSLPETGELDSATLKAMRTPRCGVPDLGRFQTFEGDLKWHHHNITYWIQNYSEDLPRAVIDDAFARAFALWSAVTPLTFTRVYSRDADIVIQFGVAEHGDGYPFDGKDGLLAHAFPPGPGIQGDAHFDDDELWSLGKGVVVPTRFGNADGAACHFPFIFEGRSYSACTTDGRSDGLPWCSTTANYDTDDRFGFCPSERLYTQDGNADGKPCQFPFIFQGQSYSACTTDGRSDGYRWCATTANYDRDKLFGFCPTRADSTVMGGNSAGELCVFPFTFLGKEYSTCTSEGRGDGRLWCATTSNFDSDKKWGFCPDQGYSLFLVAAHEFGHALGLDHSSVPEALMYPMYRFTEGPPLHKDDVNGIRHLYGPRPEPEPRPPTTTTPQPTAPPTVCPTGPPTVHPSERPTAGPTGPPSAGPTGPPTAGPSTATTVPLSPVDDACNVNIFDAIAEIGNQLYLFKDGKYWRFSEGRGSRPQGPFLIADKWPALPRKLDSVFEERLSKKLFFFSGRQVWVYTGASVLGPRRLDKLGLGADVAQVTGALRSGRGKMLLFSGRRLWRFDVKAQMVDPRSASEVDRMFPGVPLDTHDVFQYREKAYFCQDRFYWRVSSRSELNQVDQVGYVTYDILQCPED

Rattus norvegicus [18] = assay: AUC in Sprague-Dawley rat at 1 mg/kg, iv; type: ADME, organism-based, Plasma; set-up: dose 1 mg/kg, route intravenous; conditions: in vivo

Row | IC50 (Collagenase 3 [1]) | IC50 [2] | IC50 [3] | IC50 (Collagenase 3 [4]) | SMILES | further results
1 | 97 µM | > 500 µM | 210 µM |  | CCOC(=O)c1cc2cc(NS(C)(=O)=O)ccc2[nH]1 | 
2 |  | > 500 µM | 60 µM |  | CCOC(=O)c1cc2cc(C(N)=O)ccc2[nH]1 | 
3 | > 500 µM | > 500 µM | > 500 µM |  | CCCC(=O)c1cc2cc(C(N)=O)ccc2[nH]1 | 
4 | > 500 µM | > 500 µM | > 500 µM |  | CCNC(=O)c1cc2cc(C(N)=O)ccc2[nH]1 | 
5 | 31 µM | > 500 µM | > 500 µM |  | CCOC(=O)c1cc2cc(NC(C)=O)ccc2[nH]1 | 
6 | 220 µM | > 500 µM | > 500 µM |  | CC(=O)Nc1ccc2[nH]c(C3=NCCO3)cc2c1 | 
7 | > 500 µM | > 500 µM | > 500 µM |  | CCOC(=O)c1cc2cc(-c3ccccc3)ccc2[nH]1 | 
8 | > 500 µM | > 500 µM | > 500 µM |  | CCOC(=O)c1cc2cc(-c3ccccn3)ccc2[nH]1 | 
9 | 15 µM | 51 µM | 30 µM |  | CCOC(=O)c1cc2cc(-c3cccnc3)ccc2[nH]1 | 
10 | 82 µM | 225 µM | 310 µM |  | CCOC(=O)c1cc2cc(-c3ccncc3)ccc2[nH]1 | 
11 | 9.6 µM | > 500 µM | > 500 µM |  | CCOC(=O)c1cc2cc(-c3ccncc3C)ccc2[nH]1 | 
12 | 2.5 µM | 15 µM | 24 µM |  | CCOC(=O)c1cc2cc(-c3cncn3C)ccc2[nH]1 | 
13 | 2.4 µM | 41 µM | 83 µM |  | CCOC(=O)c1cc2cc(-c3cc(C(=O)OC)nn3C)ccc2[nH]1 | 
14 | 0.09 µM | > 500 µM | > 500 µM | 0.36 µM | CCOC(=O)c1cc2cc(-c3cc(C(=O)NCc4ccncc4)nn3C)ccc2[nH]1 | 
15 | 0.12 µM | 11 µM | > 24 µM | 0.28 µM | CCOC(=O)c1cc2cc(-c3cc(C(=O)NCc4ccc(=O)[nH]c4)nn3C)ccc2[nH]1 | 
16 |  | > 22 µM | > 22 µM | 0.014 µM | CCOC(=O)c1cc2cc(-c3cc(C(=O)NCc4ccc(CC(=O)O)cc4)nn3C)ccc2[nH]1 | 
17 | 0.15 µM | > 22 µM | > 20 µM | 0.64 µM | CCOC(=O)c1cc2cc(-c3cc(C(=O)NCc4ccncc4)ncc3C)ccc2[nH]1 | 
18 | 25 µM |  |  | 56 µM | Cn1nc(C(=O)NCc2ccc(C(=O)O)cc2)cc1-c1ccc2[nH]c(C(=O)O)cc2c1 | Drug metabolism (Liver microsomes): Active
19 | 0.25 µM |  |  | 1.9 µM | CCOCc1cc2cc(-c3cc(C(=O)NCc4ccc(C(=O)O)cc4)nn3C)ccc2[nH]1 | hepatic extraction ratio at 5 min [5]: 0.78
20 | 0.001 µM |  |  | 0.004 µM | CCOC(=O)c1cc2cc(-c3cc(C(=O)NCc4ccc(C(=O)O)cc4)nn3C)ccc2[nH]1 [BI 4394] | IC50 (Interstitial collagenase): > 22 µM; clearance [6]: 34 mL/min/kg; logP [7]: 1.9; solubility [8]: 60 µg/mL (≈ 134 µM); IC50 (Neutrophil collagenase): > 22 µM; IC50 (Stromelysin-1): > 22 µM; IC50 [9]: > 22 µM; IC50 (Collagenase 3 [10]): 0.011 µM; IC50 (Collagenase 3 [11]): 0.031 µM; bioavailability [12]: 39%; IC50 (Matrilysin): > 22 µM; half-life [13]: 28.2 min; IC50 (Cytochrome P450 3A4): > 30 µM; Vdss (Rattus norvegicus [14]): 0.26 L/kg; AUC (Rattus norvegicus [15]): 4328 nM.hr/ml; IC50 (Stromelysin-2): 16 µM; IC50 (Cytochrome P450 2C9): > 30 µM; Cmax [16]: 1660 nM; IC50 [17]: 8.9 µM; AUC (Rattus norvegicus [18]): 1109 nM.hr/ml
21 | > 26 µM |  |  |  | Cn1nc(C(=O)NCc2ccc(C(=O)O)cc2)cc1-c1ccc2[nH]ccc2c1 [BI 4395] | hepatic extraction ratio at 5 min [5]: 0.25
